Measurements published in US20030055104A1, “Method, composition and kit to remove lice ova from the hair” (priority 2000, published 2003).

Experiments:
[1] = cited from earlier work
[2] = system: nit attached to human hair strand; assay: Force required to dislodge a nit from a treated hair strand with a nit comb (INSTRON 1123 / CORREX Gram Gage); set-up: species or system lice; settings: in vitro studies
Method: FIG. 1 is a diagram of the test setup whereby the force required to dislodge a nit from a human hair strand with a nit comb was measured.
FIG. 2 is a view showing the positioning of the nit and hair strand between the teeth of the comb shown in the test setup of FIG. 1.
The nit-loosening effectiveness of the novel compositions and the methods of treatment employing them were tested extensively using an INSTRON® 1123 Universal Testing Instrument (Instron Corp. Canton, Mass.). This instrument, in conjunction with a CORREX® Gram Gage (SPI, Switzerland), measures the force required to loosen nits from a hair shaft and records it on paper.
Laboratory tests were performed to measure the decrease in the combing force required to remove nits from hair strands treated with various compositions of the invention as compared with controls and with prior art egg-loosening compositions.
1. Hair strand 10 with nit 12 attached.
2. Fine tooth plastic nit comb 14.
3. Controls and test compositions.
4. INSTRON® 1123 Universal Testing Instrument 16 (Instron Corp., Canton, Mass.) with a 0-50 kg load cell 18.
5. CORREX® Gram Gage 20-2-15 g with flat tip (SPI, Switzerland).
6. Clamp plate assembly 22.
7. […]
e) Start the Instron, and the force required to loosen the nits will be recorded by the paper chart recorder 30, and can also be read on the Gram Gage 20. […]

SMILES: CO[C@H]1CO[C@H]2[C@@H]1OC[C@H]2OC [Dimethyl isosorbide, 1,4:3,6 dianhydro-2,5-di-o-methyl-D-glucitol]
- solubility (in words) [1]: water and oil-soluble
- nit-loosening effectiveness (in words) [2]: good nit-loosening utility
